What was measured:
Format in all cases: functional
MCF7 = assay: In vitro growth inhibitory activity against human neoplastic MCF-7 cell line
NCI-H520 = assay: In vitro growth inhibitory activity against human neoplastic NCI-H520 cell line
PC-3 = assay: In vitro growth inhibitory activity against human neoplastic PC3 cell line
Tubulin [1] = target: T1, Tubulin (Bos taurus, UniProt Q6B856+Q862L2+Q862F3); assay: Inhibition of tubulin polymerization activity using homogenous bovine brain tubulin at 30 degree C
Tubulin [2] = target: T1, Tubulin; assay: Inhibition of tubulin polymerization activity using homogenous bovine brain tubulin at 37 degree C
Tubulin [3] = target: T1, Tubulin; assay: Inhibition of tubulin polymerization activity using homogenous bovine brain tubulin at 45 degree C
[4] = Selectivity ratio expressed as temperature dependence at 45 Degree C to that of 30 Degree C in bovine brain tubulin

IC50 (Tubulin [1]) [µM]	IC50 (Tubulin [2]) [µM]	Compound	GI50 (MCF7) [µM]	GI50 (NCI-H520) [µM]	GI50 (PC-3) [µM]	IC50 (Tubulin [3]) [µM]	Selectivity [4]
–	–	COc1cc2c(c(OC)c1OC)-c1ccc(OC)c(=O)cc1[C@@H](NC(C)=O)CC2 [COLCHICINE]	<0.05	<0.05	<0.05	–	–
30.6	23.5	CNc1cccc(C2CCc3cc(OC)c(OC)c(OC)c32)cc1=O (centres undefined)	–	–	–	–	1.3
26.2	18.2	CCOc1cccc(C2CCc3cc(OC)c(OC)c(OC)c32)cc1=O (centres undefined)	–	–	–	18	1.7
29.5	23.6	COc1cc2c(c(OC)c1OC)C(c1cccc(N)c(=O)c1)CC2 (centres undefined)	–	–	–	23.6	1.25
32	28.1	COc1cc2c(c(OC)c1OC)C(c1cccc(Br)c(=O)c1)CC2 (centres undefined)	–	–	–	22	1.45

Compound	IC50 (Tubulin [1]) [µM]	IC50 (Tubulin [2]) [µM]	GI50 (MCF7) [µM]	GI50 (NCI-H520) [µM]	GI50 (PC-3) [µM]	IC50 (Tubulin [3]) [µM]	Selectivity [4]
COc1cc2c(c(OC)c1OC)C(c1cccc(OC)c(=O)c1)CC2 (centres undefined)	108	19	75	5.4	5.2	19	5.7
COc1cc(C2CCc3cc(OC)c(OC)c(OC)c32)ccc1O (centres undefined)	46.4	46.4	>100	>100	>100	46.4	0
COc1ccc(C2CCc3cc(OC)c(OC)c(OC)c32)cc1O (centres undefined)	11.8	10.9	10	0.1	0.5	10.9	1.1

Source: ChEMBL document CHEMBL1131927, “The synthesis and evaluation of temperature sensitive tubulin toxins” (Bioorg Med Chem Lett, 1999)
